ChEMBL document CHEMBL1156829 (Proc Natl Acad Sci U S A, 2008)

What was measured:
[1] = NOVARTIS: Cytotoxicity against human hepatocellular carcinoma cell line (Huh7); type: toxicity, cell-based, Huh-7; details: Huh7 cells (hepatocellular carcinoma cell line)
Plasmodium falciparum [2] = experiment: NOVARTIS: Inhibition of Plasmodium falciparum W2 (drug-resistant) proliferation in erythrocyte-based infection assay; type: functional, organism-based; details: read-out: EC50
Plasmodium falciparum [3] = experiment: NOVARTIS: Inhibition of Plasmodium falciparum 3D7 (drug-susceptible) proliferation in erythrocyte-based infection assay; type: functional, organism-based

Row | Compound | CC50 [1] | EC50 (Plasmodium falciparum [2]; Plasmodium falciparum, W2) | EC50 (Plasmodium falciparum [3]; Plasmodium falciparum, 3D7) | EC50 (Plasmodium falciparum [2]) | EC50 (Plasmodium falciparum [3])
1 | CCOc1ccc(C(=O)Nc2cc(OC)ccc2OC)cc1 | > 10000 nM | > 917 nM | > 1250 nM | – | –
2 | Cc1nc(C(C)N(C)Cc2c(C(=O)N3CCCCCCC3)nc3sccn23)c(C)s1 (configuration not stated) | > 100000 nM | 825 nM | > 7030 nM | – | –
3 | COc1ccc(C2=Nc3cc(C(=O)NCCN4CCOCC4)ccc3CN2C(C)C)cc1 | > 100000 nM | 1530 nM | 5270 nM | – | –
4 | CN(C)c1ccc(C=CC(=O)NC(=O)c2ccccc2O)cc1 | > 100000 nM | 358 nM | 118 nM | – | –
5 | CCOC(=O)C1(CC)CC(C)(C(=O)C[n+]2cccc(Br)c2)OC1=O (configuration not stated) | > 10000 nM | 628 nM | 410 nM | – | –
6 | CC1(C)CC(NC(=O)Cc2ccc(Cl)cc2)CC(C)(C)N1 | > 100000 nM | 2300 nM | > 12500 nM | – | –
7 | C=C[C@H]1CN2CC[C@H]1C[C@@H]2[C@@H](O)c1ccnc2ccc(OC)cc12 [QUINIDINE] | 50800 nM | 35.2 nM | 9.59 nM | – | –
8 | CCOC(=O)CN(N=O)C1=C(N2CC2)C(=O)c2ccccc2C1=O | 25400 nM | 3850 nM | 206 nM | – | –
9 | CCN1C(=Cc2sc3ccc(Cl)cc3[n+]2CC)C=Cc2cc(OC)ccc21 | > 10000 nM | – | – | 602 nM | 473 nM
10 | O=[N+]([O-])c1cccc(C=NNc2nc(NN=Cc3cccc([N+](=O)[O-])c3)nc(Nc3cccc4ccccc34)n2)c1 | > 10000 nM | 442 nM | 509 nM | – | –
11 | Cc1ccc(C2Sc3ccccc3NC3=C2C(=O)c2ccccc23)cc1 (configuration not stated) | 68600 nM | 46.4 nM | 249 nM | – | –
12 | C=CCC(=O)NC1CCN(CC(O)CN(Cc2ccccc2)S(=O)(=O)c2ccccc2)C1 (configuration not stated) | > 100000 nM | 1330 nM | 257 nM | – | –
13 | COc1cc(NC(C)CCCN(Cc2ccccc2OC)C(=O)Nc2ccccc2OC)c2ncccc2c1 (configuration not stated) | > 10000 nM | 614 nM | 847 nM | – | –
14 | COc1ccc2c(C)nc(NC(=N)N)nc2c1 | 66400 nM | 1020 nM | 417 nM | – | –
15 | CCCCSc1ncnc2c1c(-c1ccccc1)cn2-c1cccc(F)c1 | > 10000 nM | > 974 nM | > 1250 nM | – | –
16 | CC(C)(C)c1nn(-c2ccc(Cl)cc2)c2[nH]c(=O)c(CNCc3ccc(Cl)cc3)cc12 | > 100000 nM | 129 nM | 351 nM | – | –
17 | O=C(Nc1ccc(O)cc1)c1cccc(S(=O)(=O)N2CCCCC2)c1 | > 100000 nM | 621 nM | 6910 nM | – | –
18 | COc1ccc(C(C)=NNc2nnc(C)c(O)n2)cc1 | 7680 nM | 258 nM | 188 nM | – | –
19 | CCCCCCCCNC(C)C(O)c1ccc(SC(C)C)cc1 (configuration not stated) [SULOCTIDIL] | 10500 nM | 603 nM | 82.4 nM | – | –
20 | CCOC(=O)C1=C(C)NC2=C(C(=O)CC(c3ccc(OC)cc3)C2)C1c1cccs1 (configuration not stated) | > 100000 nM | 189 nM | 833 nM | – | –
21 | Cn1nc(C(F)(F)F)c(-c2ccc(F)cc2)c1NC(=O)Nc1ccccc1 | 54300 nM | 353 nM | 392 nM | – | –
22 | Oc1ccccc1C=Nc1ccccc1[Te]c1ccccc1N=Cc1ccccc1O | 552 nM | 3.14 nM | 3.49 nM | – | –
23 | O=C(Nc1ccc(-c2cc(-c3ccccc3)nc(-c3ccc(NC(=O)c4cccc([N+](=O)[O-])c4)cc3)n2)cc1)c1cccc([N+](=O)[O-])c1 | > 10000 nM | 1240 nM | 1340 nM | – | –
24 | C=C1[C@@H](C)[C@H]2[C@H](Cc3ccccc3)NC(=O)[C@]23C(OC(C)=O)C=C[C@@](C)(O)C(=O)[C@@H](C)CC=C[C@H]3[C@@H]1O (some centres not stated) | > 10000 nM | 711 nM | 1170 nM | – | –
25 | O=C(Nc1ccc(F)cc1)N1CCN(c2ccc3nnc(-c4ccccc4)n3n2)CC1 | > 100000 nM | 3290 nM | > 12500 nM | – | –

Row | Compound | CC50 [1] | EC50 (Plasmodium falciparum [2]; Plasmodium falciparum, W2) | EC50 (Plasmodium falciparum [3]; Plasmodium falciparum, 3D7) | EC50 (Plasmodium falciparum [2]) | EC50 (Plasmodium falciparum [3])
26 | COc1cccc(Nc2nc(NCCO)c3ccccc3n2)c1 | 21100 nM | 312 nM | 115 nM | – | –
27 | COc1ccc(-n2c(CNc3cc(C(F)(F)F)ccc3Cl)nnc2SCc2ccccc2Cl)cc1 | > 100000 nM | 801 nM | 728 nM | – | –
28 | Cn1c(=O)c2c(nc3n2CC(O)CN3c2ccccc2)n(C)c1=O (configuration not stated) | > 10000 nM | 162 nM | 72.6 nM | – | –
29 | CCC(C(=O)NCCCCNc1ccnc2cc(Cl)ccc12)c1ccccc1 (configuration not stated) | 11500 nM | 168 nM | 288 nM | – | –
30 | Cc1ccc(O)c(Nc2c3c(c(C#N)c4nc5ccccc5n24)CCC3)c1 | > 10000 nM | 424 nM | 231 nM | – | –
31 | COc1ccc(O)c(C=NNc2nc3ccccc3[nH]2)c1 | 43900 nM | 355 nM | 576 nM | – | –
32 | Cc1cc(/C=C2/SC(=Nc3ccccc3)NC2=O)c(C)n1-c1cccc([N+](=O)[O-])c1 | > 10000 nM | 556 nM | 395 nM | – | –
33 | CCCCCCCn1c2c(c(=N)c3ccccc31)CCC2 | 3860 nM | 231 nM | 277 nM | – | –
34 | COc1ccc(OC)c(-c2ccc(O)c(CNCC3(N4CCCCC4)CCCCC3)c2)c1 | 38000 nM | 11.3 nM | 43.7 nM | – | –
35 | CN(C)[C@@H]1CCN(Cc2cccc(Cl)c2)C[C@@H]1CCC(=O)NCCCN1CCOCC1 | > 2940 nM | < 15.4 nM | 593 nM | – | –
36 | COc1cccc(CCOc2ccc3c(c2)C(=O)N(C(CC(C)C)C(=O)NC2CCN(Cc4ccccc4)CC2)[C@@H](Cc2ccc(O)cc2)C(=O)N3)c1 (some centres not stated) | > 10000 nM | 158 nM | 502 nM | – | –
37 | O=C(C[n+]1ccccc1)NN=Cc1ccc(Cl)c(Cl)c1 | > 100000 nM | 3380 nM | 2840 nM | – | –
38 | O=C(CSc1ccc(Cl)cc1)NN=C1C(=O)Nc2ccccc21 | > 100000 nM | > 1990 nM | > 12500 nM | – | –
39 | CC1CCc2c(sc(NC(=O)c3ccccc3F)c2C(=O)NCc2ccccc2)C1 (configuration not stated) | > 10000 nM | > 1250 nM | > 699 nM | – | –
40 | Cc1c(C)c(C)c(CNC(=S)NN)c(C)c1C | > 100000 nM | > 11400 nM | 4090 nM | – | –
41 | CCCCCCN(C(=O)c1cccc(F)c1)C(CC)c1nc2ccccc2c(=O)n1-c1ccccc1OC (configuration not stated) | > 7320 nM | 509 nM | 1070 nM | – | –
42 | COc1ccc(N)cc1NC(=O)c1ccc(Cl)cc1Cl | 6990 nM | 87.9 nM | > 890 nM | – | –
43 | CCOC(=O)N1CCC(NC(=O)CSCc2nc(-c3cccc(OC)c3)oc2C)CC1 | > 10000 nM | > 1080 nM | > 1250 nM | – | –
44 | O=C(NCC1CCCO1)c1cc(S(=O)(=O)N2CCCCC2)c[nH]1 (configuration not stated) | > 10000 nM | > 860 nM | > 1250 nM | – | –
45 | Cc1ccccc1NC(=O)N1CCN(C(=O)c2nc(-c3ccccc3)nc(C)c2C(=O)OC(C)C)CC1C (configuration not stated) | 51900 nM | 99.5 nM | 135 nM | – | –
46 | CC1(C)Cc2c(oc3ncn(CCn4cnc5oc6c(c5c4=N)CC(C)(C)SC6)c(=N)c23)CS1 | > 100000 nM | 9740 nM | > 12500 nM | – | –
47 | COc1cccc(/C=C2\SC(=Nc3ccccc3)NC2=O)c1OC | > 100000 nM | 1100 nM | 521 nM | – | –
48 | Cc1ccc(C)c(-c2csc(Nc3ccc(C)c(C)c3)n2)c1 | > 100000 nM | 116 nM | 493 nM | – | –
49 | CC1CCC(Nc2ccnc3cc(Cl)ccc23)CC1 (configuration not stated) | > 10000 nM | 933 nM | 843 nM | – | –
